Measured values: patent US20250109127A1, “METHODS OF USE OF PHENOXYPROPYLAMINE COMPOUNDS TO TREAT DEPRESSION” (Minerva Neurosciences, Inc., priority 2013, published 2025)
Several values for one entry are separate records, joined by “and”; a condition that tells them apart may be missing. Equal entries are not always repeated. Structures can show the parent of a compound that is named as a salt.

System: 5-HIAA release in the rat prefrontal cortex
Test: Microdialysis: 5-HIAA release in prefrontal cortex after I.P. administration
Assay type: in vivo
Conditions: for 5-HIAA release, MEAN / 5-HIAA release, individual animals: 0.3 mg/kg I.P.; for 5-HIAA release, MEAN: n = 8; for 5-HIAA release, individual animals: one column per animal R#11,12,18,23,29,30,17,24, hydrochloride; for levels of 5-HIAA compared to the citalopram treated group (significant): SON-117 0.1 mg/kg
Procedure: The aim of the study was to evaluate, using microdialysis, the effects of an intraperitoneal (I.P.) administration in rats of three different doses of SON-117 on dopamine and its metabolites, serotonin and its metabolite (5-HIAA), and norepinephrine levels in prefrontal cortex.
Thirty-two adult male Wistar rats were used for the whole study (4 groups of eight animals planned for the study, Table 1).
Surgery was performed on rats weighing about 300 g at the beginning of the experiments. Rats were anaesthetized with Ketamine (50 mg/kg) & Xylazine (15 mg/kg) by intramuscular administration. The animals were placed in a stereotaxic apparatus in the flat-skull position at a constant setting of −3.3 mm between ear bars and the incisor bar. The animals were treated with a local anesthesic (xylocaine 1%, Astra Zeneca) and an analgesic (Temgesic, from Schering Plough, 0.05 mg/kg, s.c.). A rostrocaudal midline incision was made with a lancet to expose the dorsal skull surface. The “stereotaxic zero” was defined by the Bregma in accordance with Paxinos and Watson's atlas (1986). A hole was drilled in the skull with a drill and the meninges were pierced with a sterile needle to implant a CMA12 guide cannula which later received the dialysis probe.
Coordinates used for implanting guide cannula in prefrontal cortex from Bregma were anteroposterior 3.7 mm, mediolateral 0.8 mm, and dorsoventral −2 mm (top of the probe was at −5 mm). The guide cannula was fixed to the skull with two stainless steel screws (1.88 mm outside diameter) anchored. An application of dental cement was added. A plastic collar allowed each animal to be tethered to a Swivel assembly of the CMA 120 awake animal system. Following surgery, rats were kept in individual cages and allowed to recover for a minimum of 3-5 days before the experimentation. The rats were handled and put in plastic bowl for 10 min at least every day to habituate the animals to their new environment for the dialysis. An I.P. administration with saline was also performed every day.
Dialysis probes (CMA12/3 mm, membrane, 20 kD cut-off, Carnegie Medicine, Stockholm, Sweden), were carefully washed before inserting into the guide cannula. The wash was performed with the artificial cerebrospinal fluid (aCSF) medium (NaCl 147 mM, KCl 2.7 mM, CaCl2 1.2 mM, MgCl2 0.85 mM) at room temperature. The dialysis system was then equilibrated at 20° C. at a perfusion rate of 1 μl/min with a Carnegie pump (CMA100). All catheters (FEP tubing, internal volume of 1.2 μl/10 cm, and tubing adaptors) used for microdialysis were treated in the same conditions.
The probes duly prepared were inserted into the guide cannula and the CMA120 Swivel assembly secured to the animal using a plastic collar. Flow through the dialysis probe with aCSF was maintained at a rate of 1 μl/min during the whole experimentation. The first four fractions (corresponding to 2 hours) were discarded to avoid the effects of parenchymal disturbance and to ensure that an approximate steady-state level was reached. Fractions were then collected over a period of 8.5 h during which time the animals remained quiet. The dialysates were automatically collected with an autosampler (microfraction collector CMA 140, Carnegie Medicin) and stored at −80° C. until analysis. […] Perfusion was then maintained for 7 hours with aCSF. The dialysates (30 μl) were collected into 300 μl vials, transferred into dry ice and then kept frozen (−80° C.) until analysis. Frozen samples were shipped to a partner for analysis. At the end of the microdialysis study, a PBS with colored ink was perfused through the probe in order to visualize the dialyzed area.
Catecholamine assay: Concentrations of dopamine, DOPAC, HVA, 5-HIAA, 5-HT, and norepinephrin were determined for each sample by HPLC coupled with electrochemical detection.

SMILES: Cc1nnc(-c2cc3c(OC[C@@H](O)CN4CCC(c5ccc(Cl)c(Cl)c5)CC4)cccc3o2)o1 [SON-117, (S)-1-(4-(3,4-dichlorophenyl)piperidino)-3-(2-(5-methyl-1,3,4-oxadiazol-2-yl)benzo(b)furan-4-yloxy)-2-propanol hydrochloride]
- 5-HIAA release, MEAN (T3 h 30-T4 h): 86.84 % of respective basal
- 5-HIAA release, individual animals (T3 h 30-T4 h): 84.27 % of respective basal and 78.82 % of respective basal and 113.26 % of respective basal and 50.70 % of respective basal and 79.10 % of respective basal and 97.98 % of respective basal and 103.77 % of respective basal
- 5-HIAA release, MEAN (T3 h-T3 h 30): 85.23 % of respective basal
- 5-HIAA release, individual animals (T3 h-T3 h 30): 91.97 % of respective basal and 87.81 % of respective basal and 101.16 % of respective basal and 49.70 % of respective basal and 76.51 % of respective basal and 101.56 % of respective basal and 87.92 % of respective basal
- 5-HIAA release, MEAN (T4 h 30-T5 h): 79.56 % of respective basal
- 5-HIAA release, individual animals (T4 h 30-T5 h): 106.09 % of respective basal and 92.34 % of respective basal and 55.38 % of respective basal and 93.00 % of respective basal and 34.98 % of respective basal and 60.78 % of respective basal and 97.49 % of respective basal and 96.40 % of respective basal
- 5-HIAA release, MEAN (T4 h-T4 h 30): 83.02 % of respective basal
- 5-HIAA release, individual animals (T4 h-T4 h 30): 101.39 % of respective basal and 87.58 % of respective basal and 68.33 % of respective basal and 105.89 % of respective basal and 46.22 % of respective basal and 58.28 % of respective basal and 100.16 % of respective basal and 96.30 % of respective basal
- 5-HIAA release, MEAN (T5 h 30-T6 h): 76.13 % of respective basal
- 5-HIAA release, individual animals (T5 h 30-T6 h): 99.18 % of respective basal and 83.12 % of respective basal and 47.00 % of respective basal and 91.59 % of respective basal and 31.98 % of respective basal and 58.90 % of respective basal and 95.96 % of respective basal and 101.31 % of respective basal
- 5-HIAA release, MEAN (T5 h-T5 h 30): 70.00 % of respective basal
- 5-HIAA release, individual animals (T5 h-T5 h 30): 36.17 % of respective basal and 102.81 % of respective basal and 51.02 % of respective basal and 88.56 % of respective basal and 33.58 % of respective basal and 69.56 % of respective basal and 91.58 % of respective basal and 86.71 % of respective basal
- 5-HIAA release, MEAN (T6 h 30-T7 h): 77.53 % of respective basal
- 5-HIAA release, individual animals (T6 h 30-T7 h): 93.10 % of respective basal and 92.17 % of respective basal and 48.56 % of respective basal and 102.17 % of respective basal and 26.99 % of respective basal and 69.28 % of respective basal
- 5-HIAA release, MEAN (T6 h-T6 h 30): 75.56 % of respective basal
- 5-HIAA release, individual animals (T6 h-T6 h 30): 95.37 % of respective basal and 79.54 % of respective basal and 45.32 % of respective basal and 101.94 % of respective basal and 31.32 % of respective basal and 69.73 % of respective basal and 87.93 % of respective basal and 93.33 % of respective basal
- 5-HIAA release, MEAN (T-30 min-T0 (before administration)): 101.34 % of respective basal
- 5-HIAA release, MEAN (T-1 h 30-T-1 h (before administration)): 96.20 % of respective basal
- 5-HIAA release, MEAN (T-1 h-T-30 min (before administration)): 102.47 % of respective basal
- 5-HIAA dialysate levels vs mean pre-administration value (SON-117 0.1 mg/kg I.P.): no statistically significant differences
- levels of 5-HIAA compared to the citalopram treated group (significant) (at 0.5 h): lower
- levels of 5-HIAA compared to the citalopram treated group (significant) (at 4.5 h, 5 h, 6.5 h): higher
- 5-HIAA concentrations in prefrontal cortex, change (SON-117 0.3 mg/kg IP, at 3.5 h and from 4.5 h to 7 h): significant and stable slight decrease
- 5-HIAA, difference to the citalopram group (SON-117 0.3 mg/kg, in function of time): no significant difference
